This is an account of results in ChEMBL document CHEMBL1201862, “PubChem BioAssay data set” (2004).

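Dose response: 5 concentrations. Exposure: 48 h. Format: 96-well plates. Endpoint: linear interpolation; highest concentration if not reached. GI50 = concentration required for 50% inhibition of growth.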 The source made the active and inactive calls. Cut-off read from the data, not from the text of the source: active = GI50 up to about 1.1 µM and inactive = higher. Where a SMILES comes first, the peptide text is derived from it. [ ]: non-standard residue; d: D form. The star is where a group is joined. Cbz = O=C(OCc1ccccc1)*; Aib = CC(C)(N)C(=O)O Some results are limits rather than exact numbers.

Common to all, as to test: DTP human tumour cell line panel, 48 h
Experiment [1] has as its system SN12C.
For experiment [2], the system named is IGROV-1.
The test system of experiment [3] is PC-3.
The test system of experiment [4] is HL-60.
Experiment [5] concerns KM12.
Experiment [6] relates to NCI-H23.
The subject of experiment [7] is OVCAR-5.
The subject of experiment [8] is RXF 393.
The subject of experiment [9] is K562.
The test system of experiment [10] is NCI-H460.
In experiment [11] the test system is MDA-MB-435.
Experiment [12] has as its system SNB-19.
Experiment [13] relates to U-251.
In experiment [14] the test system is OVCAR-8.
The subject of experiment [15] is Hs-578T.
Experiment [16] has as its system OVCAR-4.
The subject of experiment [17] is RPMI-8226.
Experiment [18] deals with SK-MEL-2.
The test system of experiment [19] is HOP-92.

A word on the GI50: it is the concentration that inhibits growth by half. Regarding `C/C(=C\CO)CC/C=C(\C)CNc1ccccc1`, the GI50 in [1] was 57.5 µM (inactive); in experiment [2], > 100 µM (inactive); in experiment [3], 28.8 µM (inactive); in experiment [4], 30.1 µM (inactive); in [5] it was 28.4 µM (inactive); in [6] it was < 0.01 µM (active). Besides, the GI50 is > 100 µM (inactive) in experiment [7]; 48.1 µM (inactive) in experiment [8]; 28.6 µM (inactive) in experiment [9]; > 100 µM (inactive) in experiment [10]; 36.1 µM (inactive) in [11]; 62.5 µM (inactive) in experiment [12]. Moreover, the GI50 was 59.4 µM (inactive) in experiment [13], 82.8 µM (inactive) in [14] and 29.8 µM (inactive) in [15].
For `CC(=O)NN(c1ccccc1)C1CCN(c2ccccc2)N1C(C)=O` (stereo not drawn), the GI50 in experiment [1] is > 10 µM (inactive); in experiment [2], > 10 µM (inactive); in experiment [16] it was > 10 µM (inactive); in experiment [3] it was 4 µM (inactive); in [4], 3.69 µM (inactive); in [17] it was 8.71 µM (inactive). For the same compound, the GI50 in [18] is > 10 µM (inactive); in experiment [6], > 10 µM (inactive); in [7] it was > 10 µM (inactive); in [8] it was > 10 µM (inactive); in [9] it was 2.32 µM (inactive); in [10], > 10 µM (inactive). Besides, the GI50 in experiment [11] was 3.18 µM (inactive); in [12] it was > 10 µM (inactive); in experiment [14], > 10 µM (inactive); in experiment [15], > 10 µM (inactive).
Turning to `S=C1SC(c2ccc(Cl)cc2)(c2ccc(Cl)cc2)c2ccccc21`, the GI50 in [1] is > 100 µM (inactive); in experiment [2] it was > 100 µM (inactive); in experiment [16] it was > 100 µM (inactive); in experiment [3], 58.6 µM (inactive); in experiment [5], 40.3 µM (inactive); in experiment [6], 71 µM (inactive). In addition, the GI50 was > 100 µM (inactive) in [7]; 56.9 µM (inactive) in [8]; 44.4 µM (inactive) in experiment [19]; 64.9 µM (inactive) in [9]; > 100 µM (inactive) in experiment [10]; 62.7 µM (inactive) in experiment [11]. Also, the GI50 in [12], in experiment [13], in [14] and in experiment [15] was > 100 µM (inactive) throughout.
Consider `O=C(Nc1cccc(F)c1)c1cc2ccc(O)cc2o/c1=N\c1ccccc1F`, for which the GI50 is 5.26 µM (inactive) in experiment [1]; 2.96 µM (inactive) in experiment [2]; 3.56 µM (inactive) in experiment [16]; 8.85 µM (inactive) in experiment [3]; 2.45 µM (inactive) in experiment [4]; 1.69 µM (inactive) in experiment [17]. For the same compound, the GI50 in experiment [18] was 4.8 µM (inactive); in experiment [5], 3.75 µM (inactive); in [6], 2.18 µM (inactive); in [7], 17.2 µM (inactive); in experiment [9], 2.01 µM (inactive); in experiment [10], 3.15 µM (inactive). Also, the GI50 in experiment [11] was 3.89 µM (inactive); in experiment [12], 5.31 µM (inactive); in experiment [13] it was 3.21 µM (inactive); in [14], 2.51 µM (inactive); in [15] it was 1.57 µM (inactive).
`O=C(O)[C@@H]1CSCN1C(=O)[C@@H]1CCC(=S)N1`: the GI50 in experiment [1], in experiment [2], in experiment [3], in [4], in experiment [17] and in experiment [18] was > 100 µM (inactive) each time. The GI50 in [5], in experiment [6], in experiment [7], in [8], in [9] and in experiment [10] was > 100 µM (inactive) in each case. Further, the GI50 in [11], in experiment [12], in experiment [14] and in [15] was > 100 µM (inactive) in each case.
On to `CC(=O)CC1(OC(=O)C2C(C=C(C)C)C2(C)C)C(=O)Nc2ccccc21` (stereo not drawn), for which the GI50 in [1] was > 100 µM (inactive); in experiment [2], > 100 µM (inactive); in experiment [16] it was 84.9 µM (inactive); in experiment [3], 37.6 µM (inactive); in experiment [4], > 100 µM (inactive); in experiment [17], 96.6 µM (inactive). Further, the GI50 is > 100 µM (inactive) in [18]; > 100 µM (inactive) in experiment [5]; > 100 µM (inactive) in experiment [6]; > 100 µM (inactive) in experiment [7]; > 100 µM (inactive) in experiment [8]; 77.3 µM (inactive) in experiment [9]. Also, the GI50 was 82.8 µM (inactive) in experiment [10]; > 100 µM (inactive) in experiment [11]; > 100 µM (inactive) in experiment [12]; > 100 µM (inactive) in experiment [13]; > 100 µM (inactive) in experiment [14]; > 100 µM (inactive) in experiment [15].
Take `C[N+](C)(CCNc1ccc(NCC[N+](C)(C)Cc2ccc([N+](=O)[O-])cc2)c2c1C(=O)c1c(O)ccc(O)c1C2=O)Cc1ccc([N+](=O)[O-])cc1`: the GI50 in [1] is > 50 µM (inactive); in [2] it was > 50 µM (inactive); in experiment [16] it was > 50 µM (inactive); in experiment [3], 37.8 µM (inactive); in experiment [4] it was > 50 µM (inactive); in [17], > 50 µM (inactive). The GI50 in experiment [18] is > 50 µM (inactive); in experiment [5], 1.36 µM (inactive); in experiment [6], > 50 µM (inactive); in experiment [7], > 50 µM (inactive); in [8], > 50 µM (inactive); in [9], > 5 µM (inactive). Also, the GI50 in experiment [10] is 3.2 µM (inactive); in experiment [11], > 50 µM (inactive); in experiment [13], > 50 µM (inactive); in experiment [14] it was > 50 µM (inactive); in [15], > 50 µM (inactive).
Take `C=CCNC(=O)/C(Cc1cc(Br)c(OC)c(Br)c1O)=N\O`: the GI50 in experiment [2] is 4.57 µM (inactive); in [16], 7.23 µM (inactive); in experiment [3], 6.46 µM (inactive); in [4], 1.29 µM (inactive); in experiment [17] it was 4.23 µM (inactive); in experiment [18] it was 7.73 µM (inactive). The GI50 in [5] was 2.77 µM (inactive); in experiment [6], 4.16 µM (inactive); in experiment [7], 5.43 µM (inactive); in [19], 4.65 µM (inactive); in [9] it was 2.37 µM (inactive); in experiment [10], 3.84 µM (inactive). Moreover, the GI50 in experiment [11] was 0.515 µM (active); in experiment [12] it was 4.41 µM (inactive); in experiment [13] it was 4.53 µM (inactive); in experiment [14], 4.65 µM (inactive); in experiment [15], 1.32 µM (inactive).
In the case of `CCC(C)C(Nc1c2ccccc2nc2c(C(=O)NCCN(C)C)cccc12)C(=O)O` (stereo not drawn), the GI50 in experiment [1] was 13.6 µM (inactive); in [2], 14.7 µM (inactive); in [16], 5.83 µM (inactive); in experiment [3], 14 µM (inactive); in experiment [17] it was 28.8 µM (inactive); in experiment [18], 19.4 µM (inactive). Moreover, the GI50 is 14.8 µM (inactive) in experiment [5]; 20.2 µM (inactive) in [6]; 21.3 µM (inactive) in experiment [7]; 11.8 µM (inactive) in experiment [19]; 21.6 µM (inactive) in experiment [9]; 18.1 µM (inactive) in [11]. Further, the GI50 is 8.28 µM (inactive) in experiment [12], 25.2 µM (inactive) in experiment [13], 4.45 µM (inactive) in experiment [14] and 18.4 µM (inactive) in [15].
On to `CC(=O)N1c2cc(/N=N/N(C)C)ccc2NC(=O)CC1C` (stereo not drawn), for which the GI50 in experiment [1], in [2], in experiment [16], in [3], in [4] and in experiment [17] was > 100 µM (inactive) throughout. The GI50 in [18], in [5], in experiment [6], in experiment [7], in experiment [8] and in experiment [9] was > 100 µM (inactive) in each case. For the same compound, the GI50 in experiment [10], in experiment [11], in experiment [12], in experiment [13], in experiment [14] and in experiment [15] was > 100 µM (inactive) in each case.
Take `c1cncc(CC2(c3cc4ccccc4[nH]3)OCCO2)c1`: the GI50 was > 100 µM (inactive) in experiment [1]; 22.1 µM (inactive) in experiment [2]; > 100 µM (inactive) in experiment [16]; > 100 µM (inactive) in [3]; 37.2 µM (inactive) in experiment [4]; > 100 µM (inactive) in [18]. Besides, the GI50 in [5], in [6], in experiment [19], in [10], in experiment [11] and in experiment [12] was > 100 µM (inactive) each time. Moreover, the GI50 in [13] was > 100 µM (inactive); in experiment [14] it was > 100 µM (inactive); in experiment [15], 96.8 µM (inactive).
`CC(C)(NC(=O)C(C)(C)NC(=O)OCc1ccccc1)C(=O)O` (Cbz-[Aib]-[Aib]-OH): the GI50 in [1], in [2], in experiment [16], in experiment [3], in experiment [17] and in experiment [18] was > 100 µM (inactive) throughout. In addition, the GI50 in [5], in [6], in experiment [7], in experiment [19], in experiment [9] and in [10] was > 100 µM (inactive) throughout. Further, the GI50 in [11], in experiment [12], in experiment [13], in [14] and in experiment [15] was > 100 µM (inactive) each time.
